ChEMBL document CHEMBL5465560, “Selectivity Literature for EUbOPEN Chemogenomic Library” (2024)
Values belong to the compound of their own block, whether it stands above or below them.

What was measured:
[1] = target: Ribosomal protein S6 kinase beta-1 (Homo sapiens, UniProt P23443); details: at 10 µM
[2] = target: T1, Mitogen-activated protein kinase kinase kinase 3 (Homo sapiens) (UniProt Q99759); experiment: Selectivity interaction (ActivX KiNativ screen (kinase selectivity in THP-1 cell lysates)) EUB0000639a MAP3K3; type: subcellular; details: lysate, at 5 µM
T1 sequence (whole entry): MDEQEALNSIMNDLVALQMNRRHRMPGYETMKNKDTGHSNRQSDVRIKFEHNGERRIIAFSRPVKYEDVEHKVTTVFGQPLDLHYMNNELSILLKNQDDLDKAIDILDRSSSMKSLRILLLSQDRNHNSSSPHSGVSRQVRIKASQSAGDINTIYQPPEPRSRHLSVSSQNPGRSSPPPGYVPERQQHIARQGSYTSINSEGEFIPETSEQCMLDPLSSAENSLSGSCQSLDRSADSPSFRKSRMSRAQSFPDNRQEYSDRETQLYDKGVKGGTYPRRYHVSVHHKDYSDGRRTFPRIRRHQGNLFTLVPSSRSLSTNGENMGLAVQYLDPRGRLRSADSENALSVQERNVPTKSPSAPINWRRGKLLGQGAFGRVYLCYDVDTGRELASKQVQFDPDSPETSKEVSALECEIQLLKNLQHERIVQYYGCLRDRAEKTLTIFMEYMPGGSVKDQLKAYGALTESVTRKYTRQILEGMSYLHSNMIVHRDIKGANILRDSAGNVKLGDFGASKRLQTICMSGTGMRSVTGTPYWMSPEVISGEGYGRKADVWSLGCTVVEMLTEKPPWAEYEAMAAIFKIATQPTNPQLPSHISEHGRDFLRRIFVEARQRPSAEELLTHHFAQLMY

[3] = target: T2, STE20-related kinase adapter protein alpha (Homo sapiens) (UniProt Q7RTN6); experiment: Selectivity interaction (ActivX KiNativ screen (kinase selectivity in THP-1 cell lysates)) EUB0000639a STRADA; type: subcellular; details: lysate, at 0.04 µM
T2 sequence (whole entry): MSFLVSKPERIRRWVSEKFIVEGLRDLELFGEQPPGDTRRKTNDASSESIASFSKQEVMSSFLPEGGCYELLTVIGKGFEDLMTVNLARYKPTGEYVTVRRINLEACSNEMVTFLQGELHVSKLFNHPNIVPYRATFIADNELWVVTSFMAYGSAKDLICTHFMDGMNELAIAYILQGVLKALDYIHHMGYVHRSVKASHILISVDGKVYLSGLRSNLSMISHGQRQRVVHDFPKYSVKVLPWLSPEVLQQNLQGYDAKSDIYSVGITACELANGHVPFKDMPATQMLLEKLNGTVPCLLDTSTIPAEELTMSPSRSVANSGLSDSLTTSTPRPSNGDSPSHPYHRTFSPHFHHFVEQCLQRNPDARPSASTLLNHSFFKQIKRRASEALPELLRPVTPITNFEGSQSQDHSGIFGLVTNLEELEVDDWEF

[4] = target: T3, Mitogen-activated protein kinase kinase kinase kinase 2 (Homo sapiens) (UniProt Q12851); experiment: Selectivity interaction (Kinase panel (literature)) EUB0001199aCl MAP4K2; details: at 1 µM
T3 sequence (whole entry): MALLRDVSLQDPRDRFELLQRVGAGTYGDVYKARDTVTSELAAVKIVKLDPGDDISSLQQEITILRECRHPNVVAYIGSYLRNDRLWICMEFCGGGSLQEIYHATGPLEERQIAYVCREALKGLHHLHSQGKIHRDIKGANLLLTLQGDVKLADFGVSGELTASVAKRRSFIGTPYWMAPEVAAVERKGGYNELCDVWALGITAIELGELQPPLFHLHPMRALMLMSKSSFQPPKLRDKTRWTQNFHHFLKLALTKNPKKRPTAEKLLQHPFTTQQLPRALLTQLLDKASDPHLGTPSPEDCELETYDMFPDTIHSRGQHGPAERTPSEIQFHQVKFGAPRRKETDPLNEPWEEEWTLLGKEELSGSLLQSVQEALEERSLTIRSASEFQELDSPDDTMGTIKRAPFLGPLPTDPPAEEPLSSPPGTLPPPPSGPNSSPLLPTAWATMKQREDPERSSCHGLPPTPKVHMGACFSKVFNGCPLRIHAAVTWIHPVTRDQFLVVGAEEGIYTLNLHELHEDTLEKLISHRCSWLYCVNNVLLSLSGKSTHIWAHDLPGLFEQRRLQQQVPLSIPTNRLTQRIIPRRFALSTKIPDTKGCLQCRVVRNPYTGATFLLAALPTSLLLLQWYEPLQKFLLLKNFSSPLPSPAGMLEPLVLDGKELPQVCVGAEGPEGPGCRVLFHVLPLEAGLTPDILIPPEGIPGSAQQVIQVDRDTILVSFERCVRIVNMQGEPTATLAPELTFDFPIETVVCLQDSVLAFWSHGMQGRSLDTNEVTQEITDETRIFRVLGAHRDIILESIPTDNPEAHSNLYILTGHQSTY

[5] = target: BMP-2-inducible protein kinase (Homo sapiens) (UniProt Q9NSY1); experiment: Selectivity interaction (KinomeScan (DiscoverX)) EUB0000229b BMP2K; details: at 10 µM
[6] = target: T4, Inhibitor of nuclear factor kappa-B kinase subunit beta (Homo sapiens) (UniProt O14920); experiment: Selectivity interaction (ActivX KiNativ screen (ex vivo kinase selectivity in human PBMCs)) EUB0001619a IKBKB; type: cell-based; details: PBMC, at 1 µM
T4 sequence (whole entry): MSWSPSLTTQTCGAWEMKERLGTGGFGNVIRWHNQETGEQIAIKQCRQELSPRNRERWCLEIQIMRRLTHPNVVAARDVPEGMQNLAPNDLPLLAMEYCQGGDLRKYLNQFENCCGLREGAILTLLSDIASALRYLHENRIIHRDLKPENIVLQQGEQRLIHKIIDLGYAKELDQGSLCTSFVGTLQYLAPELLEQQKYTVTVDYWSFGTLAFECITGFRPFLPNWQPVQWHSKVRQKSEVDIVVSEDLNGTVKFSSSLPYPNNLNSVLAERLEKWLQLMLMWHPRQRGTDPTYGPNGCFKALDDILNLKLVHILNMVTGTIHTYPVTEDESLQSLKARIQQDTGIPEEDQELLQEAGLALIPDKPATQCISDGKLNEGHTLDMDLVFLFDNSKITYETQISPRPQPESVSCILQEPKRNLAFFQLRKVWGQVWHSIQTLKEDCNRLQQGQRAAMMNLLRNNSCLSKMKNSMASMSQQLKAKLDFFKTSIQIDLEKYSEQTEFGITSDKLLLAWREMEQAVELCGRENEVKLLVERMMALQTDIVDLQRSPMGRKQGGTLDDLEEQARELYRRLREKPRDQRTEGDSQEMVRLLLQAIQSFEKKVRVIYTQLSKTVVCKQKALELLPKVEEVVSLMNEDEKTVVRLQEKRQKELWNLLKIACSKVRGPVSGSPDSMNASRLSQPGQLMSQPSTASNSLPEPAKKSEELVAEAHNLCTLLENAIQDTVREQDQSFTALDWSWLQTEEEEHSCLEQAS

Insulin receptor = Insulin receptor (Homo sapiens, UniProt P06213); experiment: Selectivity interaction (KinomeScan (DiscoverX)) EUB0000618a INSR; details: at 10 µM
Sequence of Insulin receptor (P06213 28-758 limits assumed): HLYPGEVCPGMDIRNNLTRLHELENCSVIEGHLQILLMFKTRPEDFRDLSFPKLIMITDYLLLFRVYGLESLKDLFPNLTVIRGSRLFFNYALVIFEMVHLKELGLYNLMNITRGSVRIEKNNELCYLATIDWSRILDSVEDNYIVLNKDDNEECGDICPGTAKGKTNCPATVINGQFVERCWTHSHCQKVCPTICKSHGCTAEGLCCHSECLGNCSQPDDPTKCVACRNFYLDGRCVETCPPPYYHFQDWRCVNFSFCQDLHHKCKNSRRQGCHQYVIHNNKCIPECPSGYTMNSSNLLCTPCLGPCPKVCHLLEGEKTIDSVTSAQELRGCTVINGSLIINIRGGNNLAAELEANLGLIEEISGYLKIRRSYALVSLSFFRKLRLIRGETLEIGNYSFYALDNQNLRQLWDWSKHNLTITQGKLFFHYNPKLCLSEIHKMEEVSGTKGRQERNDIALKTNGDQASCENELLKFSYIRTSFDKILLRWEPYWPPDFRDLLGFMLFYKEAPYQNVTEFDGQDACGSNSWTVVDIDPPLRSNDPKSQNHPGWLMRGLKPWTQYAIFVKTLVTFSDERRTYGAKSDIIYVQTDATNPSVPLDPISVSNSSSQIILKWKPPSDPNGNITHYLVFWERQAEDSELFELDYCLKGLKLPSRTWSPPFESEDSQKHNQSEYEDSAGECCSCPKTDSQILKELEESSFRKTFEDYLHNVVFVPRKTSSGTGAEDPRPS
Sequence of Insulin receptor (P06213 763-1382 limits assumed): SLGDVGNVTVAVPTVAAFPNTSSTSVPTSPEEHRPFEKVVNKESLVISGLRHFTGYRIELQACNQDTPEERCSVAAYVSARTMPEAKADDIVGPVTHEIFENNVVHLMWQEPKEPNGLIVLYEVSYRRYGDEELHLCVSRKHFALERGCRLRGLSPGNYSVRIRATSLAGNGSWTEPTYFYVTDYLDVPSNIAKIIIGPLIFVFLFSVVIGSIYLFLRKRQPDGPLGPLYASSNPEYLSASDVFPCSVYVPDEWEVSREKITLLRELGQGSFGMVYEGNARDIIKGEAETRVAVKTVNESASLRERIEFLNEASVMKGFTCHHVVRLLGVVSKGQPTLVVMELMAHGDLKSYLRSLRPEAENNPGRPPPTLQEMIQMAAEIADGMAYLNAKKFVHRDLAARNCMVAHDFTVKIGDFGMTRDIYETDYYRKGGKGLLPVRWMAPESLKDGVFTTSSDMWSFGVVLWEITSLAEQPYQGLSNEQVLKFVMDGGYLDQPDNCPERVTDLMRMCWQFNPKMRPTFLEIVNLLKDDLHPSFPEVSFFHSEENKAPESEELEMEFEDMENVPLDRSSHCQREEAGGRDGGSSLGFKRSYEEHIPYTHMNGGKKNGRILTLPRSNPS

Sequence of Ribosomal protein S6 kinase beta-1 (P23443 whole entry, looked up): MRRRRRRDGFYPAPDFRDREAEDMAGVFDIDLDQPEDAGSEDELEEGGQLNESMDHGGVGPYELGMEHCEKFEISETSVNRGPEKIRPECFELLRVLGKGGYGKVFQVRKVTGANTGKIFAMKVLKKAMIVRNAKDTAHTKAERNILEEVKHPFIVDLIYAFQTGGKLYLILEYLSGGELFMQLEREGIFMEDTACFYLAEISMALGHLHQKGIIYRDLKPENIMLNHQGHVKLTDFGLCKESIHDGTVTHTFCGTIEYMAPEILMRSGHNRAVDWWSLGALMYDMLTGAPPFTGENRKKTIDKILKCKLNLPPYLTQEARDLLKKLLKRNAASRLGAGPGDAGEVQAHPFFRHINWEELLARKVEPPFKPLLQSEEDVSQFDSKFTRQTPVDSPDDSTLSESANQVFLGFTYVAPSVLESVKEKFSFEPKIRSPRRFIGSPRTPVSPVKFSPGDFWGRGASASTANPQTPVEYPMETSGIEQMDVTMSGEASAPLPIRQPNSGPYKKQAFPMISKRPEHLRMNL
Sequence of BMP-2-inducible protein kinase (Homo sapiens) (Q9NSY1 whole entry, looked up): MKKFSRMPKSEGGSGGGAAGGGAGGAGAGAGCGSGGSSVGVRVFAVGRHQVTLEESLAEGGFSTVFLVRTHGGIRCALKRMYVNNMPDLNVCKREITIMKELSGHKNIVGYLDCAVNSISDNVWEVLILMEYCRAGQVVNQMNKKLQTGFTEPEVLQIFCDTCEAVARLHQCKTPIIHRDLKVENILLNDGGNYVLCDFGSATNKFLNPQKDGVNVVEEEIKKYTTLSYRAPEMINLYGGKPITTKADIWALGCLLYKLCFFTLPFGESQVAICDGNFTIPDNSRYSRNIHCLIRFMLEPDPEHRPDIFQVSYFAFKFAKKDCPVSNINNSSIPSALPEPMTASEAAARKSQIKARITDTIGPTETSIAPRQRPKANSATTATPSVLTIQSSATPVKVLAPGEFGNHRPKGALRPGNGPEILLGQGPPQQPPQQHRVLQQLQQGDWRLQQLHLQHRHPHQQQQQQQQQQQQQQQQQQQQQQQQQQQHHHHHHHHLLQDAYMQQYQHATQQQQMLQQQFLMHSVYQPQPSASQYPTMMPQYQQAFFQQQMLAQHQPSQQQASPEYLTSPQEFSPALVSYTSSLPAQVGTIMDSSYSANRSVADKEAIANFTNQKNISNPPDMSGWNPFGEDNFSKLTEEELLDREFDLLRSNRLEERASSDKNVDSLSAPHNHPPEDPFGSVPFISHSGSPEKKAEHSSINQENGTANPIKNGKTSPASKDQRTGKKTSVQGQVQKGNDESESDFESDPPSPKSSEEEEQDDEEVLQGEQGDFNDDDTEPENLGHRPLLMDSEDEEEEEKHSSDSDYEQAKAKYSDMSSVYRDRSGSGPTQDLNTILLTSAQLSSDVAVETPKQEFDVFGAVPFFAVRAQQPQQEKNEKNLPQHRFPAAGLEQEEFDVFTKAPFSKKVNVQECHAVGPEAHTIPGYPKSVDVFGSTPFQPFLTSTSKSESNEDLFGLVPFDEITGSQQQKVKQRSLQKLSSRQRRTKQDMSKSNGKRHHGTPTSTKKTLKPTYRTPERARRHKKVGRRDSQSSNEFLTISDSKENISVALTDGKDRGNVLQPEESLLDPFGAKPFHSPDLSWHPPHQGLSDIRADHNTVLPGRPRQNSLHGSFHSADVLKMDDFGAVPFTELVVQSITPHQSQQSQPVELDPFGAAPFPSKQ

Structure (SMILES): Cc1cc([C@@H](C)Nc2ccccc2C(=O)O)c2nc(N3CCOCC3)cc(=O)n2c1 [AZD-6482]
- % of control [1]: 72%

- % of inhibition [2]: -26.4%
- % of inhibition [3]: -6%
Structure (SMILES): CC[C@@H]1[C@H](F)C(=O)N[C@@H]1COc1nccc2cc(C(N)=O)c(OC)cc12 [ZIMLOVISERTIB]

- % of inhibition [4]: 4%
Structure (SMILES): CN1Cc2nccc(-c3cn(C)nc3-c3ccc(F)cc3)c2C1=O

Structure (SMILES): COc1cc(N(C)c2ccnc3ccc(C(F)(F)F)cc23)cc(OC)c1OC
- % binding [5]: 99%

Structure (SMILES): N#Cc1cccc(-c2c[nH]c3ncnc(N4CCOCC4)c23)c1
- % of inhibition [6]: -16%

Structure (SMILES): O[C@H]1CC[C@H](Nc2ncc3nc(Nc4c(F)cc(F)cc4F)n([C@H]4CCOC4)c3n2)CC1
- % of control (Insulin receptor): 98%
